Experimental data reported in patent US12180193B2, “Accelerating fibrosarcoma protein degrading compounds and associated methods of use” (Arvinas Operations, Inc., priority 2020, dated 2024).

Key:
BRAF V600E = target: T1, BRAF V600E (Homo sapiens, UniProt P15056, V600E); assay: Cellular assay of target protein degradation, T-Rex 293 cells stably transfected with HA-BRAF_V600E (HA immunofluorescence, high content imaging); type: cell-based; conditions: T-Rex 293 HA-BRAF V600E; for DC50: half maximal degradation, read-out: BRaf V600E DC50; for Dmax: maximum degradation observed
T1 construct: expressed in transfected cells
T1 sequence (P15056 whole entry V600E): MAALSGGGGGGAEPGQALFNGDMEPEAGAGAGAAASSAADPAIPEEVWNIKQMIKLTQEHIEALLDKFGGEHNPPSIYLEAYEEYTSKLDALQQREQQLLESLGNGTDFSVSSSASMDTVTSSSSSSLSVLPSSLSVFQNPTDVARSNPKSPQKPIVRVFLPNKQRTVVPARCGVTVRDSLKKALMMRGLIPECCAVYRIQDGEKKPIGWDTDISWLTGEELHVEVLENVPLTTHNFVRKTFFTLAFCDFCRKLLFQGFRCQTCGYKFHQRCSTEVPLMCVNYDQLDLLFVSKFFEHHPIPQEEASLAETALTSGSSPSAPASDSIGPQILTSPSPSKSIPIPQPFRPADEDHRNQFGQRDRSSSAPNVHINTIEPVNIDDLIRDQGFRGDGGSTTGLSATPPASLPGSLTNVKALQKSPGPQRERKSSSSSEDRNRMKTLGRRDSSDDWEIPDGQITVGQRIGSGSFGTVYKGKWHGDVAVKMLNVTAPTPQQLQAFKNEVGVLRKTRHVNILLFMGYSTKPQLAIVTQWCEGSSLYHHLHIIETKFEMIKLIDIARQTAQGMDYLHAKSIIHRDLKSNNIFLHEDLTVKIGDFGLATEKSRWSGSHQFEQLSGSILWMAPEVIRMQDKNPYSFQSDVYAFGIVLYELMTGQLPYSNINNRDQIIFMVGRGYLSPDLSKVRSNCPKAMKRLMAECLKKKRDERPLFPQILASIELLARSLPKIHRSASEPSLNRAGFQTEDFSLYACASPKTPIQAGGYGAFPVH
How it was run: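 Degradation of the HA-tagged construct is measured after 24 h treatment at 37 °C across 1 μM to 0.1 nM in 0.1% DMSO, in doxycycline-induced (1 ng/mL) cells. DC50 and Dmax come from HA fluorescence imaging.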

BRAF G466V = target: T2, BRAF G466V (Homo sapiens, UniProt P15056, G466V); assay: Cellular assay of target protein degradation, T-Rex 293 cells stably transfected with HA-BRAF G466V (HA immunofluorescence, high content imaging); type: cell-based; conditions: T-Rex 293 HA-BRAF G466V; for DC50: half maximal degradation, read-out: BRaf G466V DC50; for Dmax: maximum degradation observed
T2 construct: expressed in transfected cells
T2 sequence (P15056 whole entry G466V): as the sequence (P15056 whole entry V600E) above, with G466V, E600V counted along it
How it was run: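 Dose range spans 30 nM to 3 pM (0.1% DMSO) over 24 hours at 37° C, in cells induced with 0.75 ng/mL doxycycline. Fixed cells are probed with anti-HA antibody overnight at 4° C, then imaged; half-maximal degradation and maximum degradation are derived.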

DC50 (BRAF V600E) | Dmax (BRAF V600E) | DC50 (BRAF G466V) | Dmax (BRAF G466V) | SMILES
5 to 50 nM | 35 to 70% | 1 to 10 nM | > 70% | O=C1CCC(NC(=O)N2CCCc3c(N4CCN(CC5CCN(c6ccc(-c7cnc8[nH]cc(C(=O)c9c(F)ccc(NS(=O)(=O)N%10CC[C@@H](F)C%10)c9F)c8c7)cc6)CC5)CC4)ccnc32)C(=O)N1 (stereo partly drawn) [Compound 370, 5-(4-{[1-(4-{3-[2,6-difluoro-3-({[(3R)-3-fluoropyrrolidin-1-yl]sulfonyl}amino)benzoyl]-1H-pyrrolo[2,3-b]pyridin-5-yl}phenyl)piperidin-4-yl]methyl}piperazin-1-yl)-N-(2,6-dioxopiperidin-3-yl)-1,2,3,4-tetrahydro-1,8-naphthyridine-1-carboxamide]
50 to 500 nM | > 70% | 1 to 10 nM | > 70% | O=C1CC[C@H](NC(=O)N2CCCc3c(N4CCC(CN5CCN(c6ccc(-c7cnc8[nH]cc(C(=O)c9c(F)ccc(NS(=O)(=O)N%10CC[C@@H](F)C%10)c9F)c8c7)cc6)CC5)CC4)ccnc32)C(=O)N1 [Compound 371, 5-(4-{[4-(4-{3-[2,6-difluoro-3-({[(3R)-3-fluoropyrrolidin-1-yl]sulfonyl}amino)benzoyl]-1H-pyrrolo[2,3-b]pyridin-5-yl}phenyl)piperazin-1-yl]methyl}piperidin-1-yl)-N-[(3S)-2,6-dioxopiperidin-3-yl]-1,2,3,4-tetrahydro-1,8-naphthyridine-1-carboxamide]
> 500 nM |  | > 30 nM |  | O=C1CC[C@@H](NC(=O)N2CCCc3c(N4CCC(CN5CCN(c6ccc(-c7cnc8[nH]cc(C(=O)c9c(F)ccc(NS(=O)(=O)N%10CC[C@@H](F)C%10)c9F)c8c7)cc6)CC5)CC4)ccnc32)C(=O)N1 [Compound 372, 5-(4-{[4-(4-{3-[2,6-difluoro-3-({[(3R)-3-fluoropyrrolidin-1-yl]sulfonyl}amino)benzoyl]-1H-pyrrolo[2,3-b]pyridin-5-yl}phenyl)piperazin-1-yl]methyl}piperidin-1-yl)-N-[(3R)-2,6-dioxopiperidin-3-yl]-1,2,3,4-tetrahydro-1,8-naphthyridine-1-carboxamide]
5 to 50 nM | 35 to 70% | 1 to 10 nM | > 70% | O=C1CC[C@H](NC(=O)c2ccc(N3CC4(CN(CCc5ccc(-c6cnc7[nH]cc(C(=O)c8c(F)ccc(NS(=O)(=O)N9CC[C@@H](F)C9)c8F)c7c6)cc5)C4)C3)cc2F)C(=O)N1 [Compound 373, 4-[6-(2-[4-[3-(2,6-difluoro-3-[[(3R)-3-fluoropyrrolidin-1-ylsulfonyl]amino]benzoyl)-1H-pyrrolo[2,3-b]pyridin-5-yl]phenyl]ethyl)-2,6-diazaspiro[3.3]heptan-2-yl]-N-[(3S)-2,6-dioxopiperidin-3-yl]-2-fluorobenzamide]
5 to 50 nM | 35 to 70% | < 1 nM | 35 to 70% | O=C1CCC(NC(=O)c2ccc(N3CC4(CN(CCc5ccc(-c6cnc7[nH]cc(C(=O)c8c(F)ccc(NS(=O)(=O)N9CC[C@@H](F)C9)c8F)c7c6)cc5)C4)C3)cc2F)C(=O)N1 (stereo partly drawn) [Compound 374, 4-{6-[2-(4-{3-[2,6-difluoro-3-({[(3R)-3-fluoropyrrolidin-1-yl]sulfonyl}amino)benzoyl]-1H-pyrrolo[2,3-b]pyridin-5-yl}phenyl)ethyl]-2,6-diazaspiro[3.3]heptan-2-yl}-N-(2,6-dioxopiperidin-3-yl)-2-fluorobenzamide]
50 to 500 nM | 35 to 70% | 1 to 10 nM | 35 to 70% | O=C1CC[C@H](NC(=O)c2ccc(C3CCN(CC4CCN(c5ncc(-c6cnc7[nH]cc(C(=O)c8c(F)ccc(NS(=O)(=O)N9CC[C@@H](F)C9)c8F)c7c6)cn5)CC4)CC3)cc2F)C(=O)N1 [Compound 375, 4-(1-{[1-(5-{3-[2,6-difluoro-3-({[(3R)-3-fluoropyrrolidin-1-yl]sulfonyl}amino)benzoyl]-1H-pyrrolo[2,3-b]pyridin-5-yl}pyrimidin-2-yl)piperidin-4-yl]methyl}piperidin-4-yl)-N-[(3S)-2,6-dioxopiperidin-3-yl]-2-fluorobenzamide]
50 to 500 nM | 35 to 70% | 1 to 10 nM | 35 to 70% | O=C1CCC(NC(=O)c2ccc(C3CCN(CC4CCN(c5ncc(-c6cnc7[nH]cc(C(=O)c8c(F)ccc(NS(=O)(=O)N9CC[C@@H](F)C9)c8F)c7c6)cn5)CC4)CC3)cc2F)C(=O)N1 (stereo partly drawn) [Compound 376, 4-(1-{[1-(5-{3-[2,6-difluoro-3-({[(3R)-3-fluoropyrrolidin-1-yl]sulfonyl}amino)benzoyl]-1H-pyrrolo[2,3-b]pyridin-5-yl}pyrimidin-2-yl)piperidin-4-yl]methyl}piperidin-4-yl)-N-(2,6-dioxopiperidin-3-yl)-2-fluorobenzamide]
5 to 50 nM | 35 to 70% | 1 to 10 nM | 35 to 70% | O=C1CC[C@H](NC(=O)c2ccc(N3CCN(CCN4CCN(c5ccc(-c6cnc7[nH]cc(C(=O)c8c(F)ccc(NS(=O)(=O)N9CC[C@@H](F)C9)c8F)c7c6)cc5)CC4)CC3)cc2F)C(=O)N1 [Compound 377, 4-(4-{2-[4-(4-{3-[2,6-difluoro-3-({[(3R)-3-fluoropyrrolidin-1-yl]sulfonyl}amino)benzoyl]-1H-pyrrolo[2,3-b]pyridin-5-yl}phenyl)piperazin-1-yl]ethyl}piperazin-1-yl)-N-[(3S)-2,6-dioxopiperidin-3-yl]-2-fluorobenzamide]
5 to 50 nM | < 35% | < 1 nM | < 35% | O=C1CCC(NC(=O)c2ccc(N3CCN(CCN4CCN(c5ccc(-c6cnc7[nH]cc(C(=O)c8c(F)ccc(NS(=O)(=O)N9CC[C@@H](F)C9)c8F)c7c6)cc5)CC4)CC3)cc2F)C(=O)N1 (stereo partly drawn) [Compound 378, 4-(4-{2-[4-(4-{3-[2,6-difluoro-3-({[(3R)-3-fluoropyrrolidin-1-yl]sulfonyl}amino)benzoyl]-1H-pyrrolo[2,3-b]pyridin-5-yl}phenyl)piperazin-1-yl]ethyl}piperazin-1-yl)-N-(2,6-dioxopiperidin-3-yl)-2-fluorobenzamide]
50 to 500 nM | 35 to 70% | 1 to 10 nM | 35 to 70% | O=C1CC[C@H](NC(=O)N2CCCc3c(N4CC5(CN(CCc6ccc(-c7cnc8[nH]cc(C(=O)c9c(F)ccc(NS(=O)(=O)N%10CC[C@@H](F)C%10)c9F)c8c7)cc6)C5)C4)ccnc32)C(=O)N1 [Compound 379, 5-{6-[2-(4-{3-[2,6-difluoro-3-({[(3R)-3-fluoropyrrolidin-1-yl]sulfonyl}amino)benzoyl]-1H-pyrrolo[2,3-b]pyridin-5-yl}phenyl)ethyl]-2,6-diazaspiro[3.3]heptan-2-yl}-N-[(3S)-2,6-dioxopiperidin-3-yl]-1,2,3,4-tetrahydro-1,8-naphthyridine-1-carboxamide]
> 500 nM |  | 1 to 10 nM | < 35% | O=C1CC[C@@H](NC(=O)N2CCCc3c(N4CC5(CN(CCc6ccc(-c7cnc8[nH]cc(C(=O)c9c(F)ccc(NS(=O)(=O)N%10CC[C@@H](F)C%10)c9F)c8c7)cc6)C5)C4)ccnc32)C(=O)N1 [Compound 380, 5-{6-[2-(4-{3-[2,6-difluoro-3-({[(3R)-3-fluoropyrrolidin-1-yl]sulfonyl}amino)benzoyl]-1H-pyrrolo[2,3-b]pyridin-5-yl}phenyl)ethyl]-2,6-diazaspiro[3.3]heptan-2-yl}-N-[(3R)-2,6-dioxopiperidin-3-yl]-1,2,3,4-tetrahydro-1,8-naphthyridine-1-carboxamide]
50 to 500 nM | 35 to 70% | 1 to 10 nM | 35 to 70% | O=C1CCC(N2Cc3cc(N4CCC(N5CCC56CN(c5ccc(-c7cnc8[nH]cc(C(=O)c9c(F)ccc(NS(=O)(=O)N%10CC[C@@H](F)C%10)c9F)c8c7)cc5)C6)CC4)ccc3C2=O)C(=O)N1 (stereo partly drawn) [Example 9]
